In US12258321B1 (University of Jeddah, priority 2024, dated 2025):

What was measured:
[1] = test system: BCL-2; assay: Western blot of BCL-2 expression in MCF7 cells; format: cell-based, human; details: 24 hours, vs untreated
Description: (§1) MCF-7 cells were exposed to compounds Comp-1 and Comp-6 for a period of 24 h, after which western blot analysis was conducted using a previously established protocol^21. To assess the release of cytochrome c, cytosolic and mitochondrial fractions were prepared in accordance with the methods outlined by Kawiak et al^21. Specific primary antibodies were utilized viz; anti-β-actin (1:1,000) (Cell Signaling, Danvers, MA, USA), anti-Bcl-2, anti-Bax, and anti-Mcl-1 (1:250) (Santa Cruz, Heidelberg, Germany), anti-ERK1/2, anti-MEK1/2, anti-p-ERK1/2, and anti-p-MEK1/2 (1:1,000) (Cell Signaling), and anti-cytochrome c (1:5,000) (Abcam, UK), and membranes were subjected to an overnight incubation with these antibodies at 4° C. This was followed by a 1 h incubation with HRP-conjugated secondary antibodies (1:2000) (Cell Signaling). The levels of protein were then determined using chemiluminescence (ChemiDoc; Bio-Rad, Waltham, MA, USA) with an HRP substrate (Thermo Scientific, MA, USA).
(§2) The cytotoxic mechanisms of the exemplary compounds Comp-1 and Comp-6 were investigated. Given that apoptosis is a common mechanism of action for many cancer therapies, we analyzed the levels of apoptotic markers BAX, BCL-2 and MCL-1 after treating MCF7 cells with Comp-1 and Comp-6 for 24 hours. Western blot analysis was performed on cell lysates and compared to untreated cell lysates.

[2] = target: T1, MCL-1 (Homo sapiens, UniProt Q07820); assay: MCL-1 inhibition by TR-FRET assay (cell-free); format: binding; details: read-out: IC50 against MCL-1
T1 construct: purchased BPS Bioscience
T1 sequence (Q07820 whole entry): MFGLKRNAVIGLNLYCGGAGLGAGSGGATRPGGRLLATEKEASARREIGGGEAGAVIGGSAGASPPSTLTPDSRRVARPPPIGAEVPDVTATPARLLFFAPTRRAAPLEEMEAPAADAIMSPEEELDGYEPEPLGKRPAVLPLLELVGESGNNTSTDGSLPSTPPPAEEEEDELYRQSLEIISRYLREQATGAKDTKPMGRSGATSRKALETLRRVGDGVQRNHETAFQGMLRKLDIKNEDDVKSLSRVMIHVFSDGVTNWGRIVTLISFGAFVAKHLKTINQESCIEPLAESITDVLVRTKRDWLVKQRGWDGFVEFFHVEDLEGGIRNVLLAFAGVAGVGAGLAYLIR
Description: (§3) The effectiveness of inhibiting the MCL-1 and BCL-2 proteins was evaluated using specific assay kits (BPS Bioscience, Sandiego, CA) and corresponding ligands for each protein. […] Measurements were taken of Tb-donor emission at 620 nm followed by dye-acceptor emission at 665 nm, and data analysis was performed using the TR-FRET ratio (665 nm emission/620 nm emission). The FRET value from the positive control was considered as full activity (100%) and the FRET value from the negative control was considered as zero percent activity. Then, % inhibitory activity of test compounds was calculated by the equation: % Activity=FRETS−FRETneg/FRETP−FRETneg×100%
(§4) Where FRETS, FRETneg, and FRETp are sample FRET, negative control FRET, and positive control FRET, respectively. The IC50 values of the test compounds were calculated by nonlinear regression analysis on GraphPad Prism 5 (GraphPad Inc., USA).

[3] = test system: BAX; assay: Western blot of BAX level in MCF7 cells; format: cell-based, human; details: 24 hours
Description: as §1, §2

[4] = test system: MCL-1; assay: Western blot of MCL-1 expression in MCF7 cells; format: cell-based, human; details: 24 hours, vs untreated
Description: as §1, §2

[5] = test system: MCF-7 cells; assay: MTT cytotoxicity test on MCF-7 breast cancer cells; format: cell-based, human; details: for IC50: Homo sapiens, MCF7, 24 h, read-out: IC50, cytotoxic activity against MCF7 breast cancer cells
Description: The MCF-7 breast cancer cell lines were purchased from VACSERA Tissue Culture Unit (Giza, Egypt). MCF-7 cells were cultured in RPMI medium supplemented with 2 mM glutamine and 10% fetal bovine serum. Both cell cultures included […] streptomycin and 100 units/ml penicillin and were kept in a humidified atmosphere with 5% CO2 at 37° C.
All experiments were performed in triplicate. Data were given as mean±SD.

[6] = target: T2, BCL-2 (Homo sapiens, UniProt P10415); assay: BCL-2 inhibition by TR-FRET assay (cell-free); format: binding; details: read-out: IC50 against BCL-2
T2 construct: purchased BPS Bioscience
T2 sequence (P10415 whole entry): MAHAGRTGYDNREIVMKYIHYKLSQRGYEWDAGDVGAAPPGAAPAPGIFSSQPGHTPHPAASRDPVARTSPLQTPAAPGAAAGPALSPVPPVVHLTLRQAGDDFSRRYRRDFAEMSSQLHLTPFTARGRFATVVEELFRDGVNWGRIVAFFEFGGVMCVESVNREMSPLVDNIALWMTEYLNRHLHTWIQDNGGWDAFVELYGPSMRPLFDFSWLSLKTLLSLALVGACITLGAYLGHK
Description: as §3, §4

[7] = test system: p-ERK1/2; assay: Western blot of p-ERK1/2 in EGF-stimulated MCF7 cells; format: cell-based, human; details: MCF7 cells stimulated with EGF for 30 minutes
Description: as §1
(§5) To investigate the impact of exemplary compounds on the cancer-promoting MAPK pathway in MCF7 breast cancer cells, we stimulated the cells with epidermal growth factor (EGF) for 30 minutes to induce p-ERK1/2 and p-MEK1/2 protein expression.

[8] = test system: p-MEK1/2; assay: Western blot of p-MEK1/2 in EGF-stimulated MCF7 cells; format: cell-based, human; details: MCF7 cells stimulated with EGF for 30 minutes
Description: as §1, §5

Row | SMILES | reduction of BCL-2 expression [1] | IC50 [2] | BAX increase compared to untreated cells (Control) [3] | reduction of MCL-1 expression [4] | IC50 [5] | IC50 [6] | reduction of p-ERK1/2 signal [7] | reduction of p-MEK1/2 signal [8] | potency relative to the reference drug Staurosporine (fold higher) ([5]; MCF7 cytotoxicity IC50 ratio)
1 | O=C(Cc1ccc(-n2cc(COc3cccc4ccccc34)nn2)cc1)NCc1ccccc1 | 55.9% | 756 nM | nine-fold | 43.7% | 1880 nM | 1920 nM | 50.7% | 55.9% | 
2 | O=C(Cc1ccc(-n2cc(CO)nn2)cc1)NCc1ccccc1 [Comp-1, N-benzyl-2-(4-(4-(hydroxymethyl)-1H-1,2,3-triazol-1-yl)phenyl)acetamide] | 65.3% | 365 nM | more than five-fold | 65.4% | 1100 nM | 507 nM | 46.1% | 65.3% | approximately 5 fold
3 | O=C(Cc1ccc(-n2cc(COCc3ccccc3)nn2)cc1)NCc1ccccc1 [Comp-5, N-benzyl-2-(4-(4-((benzyloxy)methyl)-1H-1,2,3-triazol-1-yl)phenyl)acetamide] |  |  |  |  | 3200 nM |  |  |  | 
